These molecules were tested against T1, Caspase-1 (Homo sapiens, UniProt P29466) (assay: Tested for inhibition of cysteine proteinase IL-1 beta converting enzyme (ICE)).
T1 sequence (P29466 whole entry): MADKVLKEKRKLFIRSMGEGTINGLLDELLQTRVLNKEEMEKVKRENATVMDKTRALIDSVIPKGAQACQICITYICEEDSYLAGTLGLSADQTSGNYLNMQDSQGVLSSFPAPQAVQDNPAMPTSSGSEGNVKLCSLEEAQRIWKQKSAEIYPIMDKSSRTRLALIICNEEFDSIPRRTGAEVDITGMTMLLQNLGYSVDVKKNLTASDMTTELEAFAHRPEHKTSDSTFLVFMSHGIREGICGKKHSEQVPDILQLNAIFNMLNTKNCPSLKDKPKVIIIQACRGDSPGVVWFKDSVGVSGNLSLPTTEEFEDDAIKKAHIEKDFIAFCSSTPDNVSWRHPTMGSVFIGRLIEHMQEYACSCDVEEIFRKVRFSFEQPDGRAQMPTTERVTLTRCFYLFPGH

| Structure (SMILES) | Ki [nM] |
| --- | --- |
| CC(C)[C@H](NC(=O)CCc1ccccc1)C(=O)N[C@@H](C)C(=O)NC(CC(=O)O)C(=O)CCCCc1ccccc1 (stereo partly drawn) | 100 |
| CC(C)[C@H](NC(=O)CCc1ccccc1)C(=O)N[C@@H](C)C(=O)NC(CC(=O)O)C(=O)C[S+]([O-])CCCc1ccccc1 (stereo partly drawn) | 27 |
| CC(C)[C@H](NC(=O)CCc1ccccc1)C(=O)N[C@@H](C)C(=O)NC(CC(=O)O)C(=O)CN(CCc1ccccc1)Cc1ccccc1 (stereo partly drawn) | 60 |
| CC(C)[C@H](NC(=O)CCc1ccccc1)C(=O)N[C@@H](C)C(=O)NC(CC(=O)O)C(=O)CS(=O)(=O)CCCc1ccccc1 (stereo partly drawn) | 113 |
| CC(C)[C@H](NC(=O)CCc1ccccc1)C(=O)N[C@@H](C)C(=O)NC(CC(=O)O)C(=O)COC(=O)NCc1ccccc1 (stereo partly drawn) | 120 |

Stronger by Ki, values ahead:

| Ki [nM] | Structure (SMILES) |
| --- | --- |
| 4.7 | CC(C)[C@H](NC(=O)CCc1ccccc1)C(=O)N[C@@H](C)C(=O)NC(CC(=O)O)C(=O)CNCCc1ccccc1 (stereo partly drawn) |
| 11 | CC(C)[C@H](NC(=O)CCc1ccccc1)C(=O)N[C@@H](C)C(=O)NC(CC(=O)O)C(=O)CSCCCc1ccccc1 (stereo partly drawn) |
| 2.7 | CC(C)[C@H](NC(=O)CCc1ccccc1)C(=O)N[C@@H](C)C(=O)NC(CC(=O)O)C(=O)COC(=O)CCc1ccccc1 (stereo partly drawn) |

From ChEMBL document CHEMBL1152088, “Activated ketones as potent reversible inhibitors of interleukin-I converting enzyme” (Bioorg Med Chem Lett, 1994)
